{
  "source": "patent US4340539A",
  "about": "“Derivatives of 6-bromo penicillanic acid” (priority 1980, dated 1982)",
  "key": {"B. fragilis": {"system": "B. fragilis", "assay": "Anti-Bacteroides activity (MIC, agar dilution), alone and in combination with BL-P2013", "type": "cell-based"}, "B. thetaiotaomicron": {"system": "B. thetaiotaomicron", "assay": "Anti-Bacteroides activity (MIC, agar dilution), alone and in combination with BL-P2013", "type": "cell-based", "protocol": "*Minimum inhibitory concentration (MIC) determined by the agar dilution\nmethod using 50X dilutions of 24 hour cultures as inocula dispensed by th\nSteer's inoculator. Assay medium composed of Brucella Agar plus 5% laked\nsheep blood and 10 mcg/ml vitamin K."}, "Bacteroides species": {"system": "Bacteroides species", "assay": "Anti-Bacteroides activity (MIC, agar dilution), alone and in combination with BL-P2013", "type": "cell-based", "conditions": "Bacteroides"}, "[1]": {"conditions": "man, cited from earlier work"}},
  "note": "Where two headings read alike, the source gives them in different places.",
  "data": [
    {"smiles": "NCc1ccccc1CC(=O)N[C@@H]1C(=O)N2C(C(=O)O)=C(CSc3nnnn3CC(=O)O)CS[C@H]12", "note": "[Ceforanide]", "values": [
      {"measurement": "MIC", "setting": "B. fragilis; strain A21875, β-lactamase +, read-out: MIC", "value": 32, "unit": "µg/mL"},
      {"measurement": "MIC", "setting": "B. fragilis; strain A21916, β-lactamase +, read-out: MIC", "value": 63, "unit": "µg/mL"},
      {"measurement": "MIC", "setting": "B. fragilis; strain A22021, β-lactamase +, read-out: MIC", "value": 32, "unit": "µg/mL"},
      {"measurement": "MIC", "setting": "B. fragilis; strain A22053, β-lactamase +, read-out: MIC", "value": 32, "unit": "µg/mL"},
      {"measurement": "MIC", "setting": "B. fragilis; strain A22533, β-lactamase +", "value": "> 125", "unit": "µg/mL"},
      {"measurement": "MIC", "setting": "B. fragilis; strain A22534, β-lactamase +", "value": "> 125", "unit": "µg/mL"},
      {"measurement": "MIC", "setting": "B. fragilis; strain A22535, β-lactamase +", "value": "> 125", "unit": "µg/mL"},
      {"measurement": "MIC", "setting": "B. fragilis; strain A22693, β-lactamase +, read-out: MIC", "value": 63, "unit": "µg/mL"},
      {"measurement": "MIC", "setting": "B. fragilis; strain A22694, β-lactamase +", "value": 125, "unit": "µg/mL"},
      {"measurement": "MIC", "setting": "B. fragilis; strain A22695, β-lactamase +", "value": "> 125", "unit": "µg/mL"},
      {"measurement": "MIC", "setting": "B. fragilis; strain A22696, β-lactamase +", "value": "> 125", "unit": "µg/mL"},
      {"measurement": "MIC", "setting": "B. fragilis; strain A22697, β-lactamase +, read-out: MIC", "value": 63, "unit": "µg/mL"},
      {"measurement": "MIC", "setting": "B. fragilis; strain A22792, β-lactamase +", "value": "> 125", "unit": "µg/mL"},
      {"measurement": "MIC", "setting": "B. fragilis; strain A22793, β-lactamase +, read-out: MIC", "value": 32, "unit": "µg/mL"},
      {"measurement": "MIC", "setting": "B. fragilis; strain A22794, β-lactamase +, read-out: MIC", "value": 32, "unit": "µg/mL"},
      {"measurement": "MIC", "setting": "B. fragilis; strain A22795, β-lactamase +, read-out: MIC", "value": 63, "unit": "µg/mL"},
      {"measurement": "MIC", "setting": "B. fragilis; strain A22797, β-lactamase +, read-out: MIC", "value": 63, "unit": "µg/mL"},
      {"measurement": "MIC", "setting": "B. fragilis; strain A22798, β-lactamase +, read-out: MIC", "value": 32, "unit": "µg/mL"},
      {"measurement": "MIC", "setting": "B. thetaiotaomicron; Bacteroides thetaiotaomicron, strain A22277, β-lactamase +, read-out: MIC", "value": 125, "unit": "µg/mL"},
      {"measurement": "MIC", "setting": "B. thetaiotaomicron; strain A22279, β-lactamase +", "value": 125, "unit": "µg/mL"},
      {"measurement": "MIC", "setting": "Bacteroides species", "value": 125, "unit": "µg/mL"},
      {"measurement": "MIC", "setting": "Bacteroides species; strain A20927-1, β-lactamase -, read-out: MIC", "value": 0.5, "unit": "µg/mL"},
      {"measurement": "MIC", "setting": "Bacteroides species; strain A20929, β-lactamase +, read-out: MIC", "value": 63, "unit": "µg/mL"},
      {"measurement": "MIC", "setting": "Bacteroides species; strain A20931, β-lactamase +, read-out: MIC", "value": 63, "unit": "µg/mL"},
      {"measurement": "MIC", "setting": "Bacteroides species; strain A20933, β-lactamase +, read-out: MIC", "value": 63, "unit": "µg/mL"},
      {"measurement": "MIC", "setting": "Bacteroides species; strain A20934, β-lactamase +, read-out: MIC", "value": 32, "unit": "µg/mL"},
      {"measurement": "MIC", "setting": "Bacteroides species; strain A20935, β-lactamase -, read-out: MIC", "value": 2, "unit": "µg/mL"},
      {"measurement": "MIC", "setting": "Bacteroides species; strain A21954, β-lactamase +, read-out: MIC", "value": 63, "unit": "µg/mL"},
      {"measurement": "MIC", "setting": "Bacteroides species; strain A21959, β-lactamase +, read-out: MIC", "value": 63, "unit": "µg/mL"}
    ]},
    {"smiles": "CC1(C)S[C@@H]2[C@H](NC(=O)[C@H](N)c3ccccc3)C(=O)N2[C@H]1C(=O)OCOC(=O)[C@@H]1N2C(=O)C[C@H]2S(=O)(=O)C1(C)C", "note": "[Example 3]", "values": [
      {"measurement": "absorption", "setting": "[1]; gastro-intestinal tract", "value": "excellently absorbed"},
      {"measurement": "blood and tissue levels of antibiotic and β-lactamase inhibitor", "setting": "[1]", "value": "high blood and tissue levels"},
      {"measurement": "hydrolysis after absorption", "setting": "[1]", "value": "hydrolyzed with simultaneous liberation of the active components"}
    ]}
  ]
}
